# Where a name gives a salt, the structure may show the parent alone.
# Tested on: NCI-H460
# Settings: read-out: Cytotoxicity test on H460 cells: IC50; H460 cells; printed as 42 nM±6
row,Compound,IC50
1,"CC[C@@]1(OC(=O)CCCBr)C(=O)OCc2c1cc1n(c2=O)Cc2c-1nc1ccccc1c2/C=N/OC(C)(C)C [ST2599, (E)-7-tert-butoxyiminomethyl-20-O-(4-bromo)-butyryl-camptothecin]",42 nM

# Same assay, conditions: read-out: NCI-H460 IC50; 2 h exposure, then 72 h recovery; concentration inhibiting 50% of cell survival; ALLFIT software
row,Compound,IC50
1,"CCC1(OC(=O)CCC(=O)NCCN(C)C)C(=O)OCc2c1cc1n(c2=O)Cc2c-1nc1ccccc1c2C=NOC(C)(C)C (stereo not shown) [ST1657, (E)-7-tert-butoxyiminomethyl-20-O-[2-(dimethylamino)ethylamino]succinyl-camptothecin hydrochloride]",12 nM
2,"CC[C@@]1(OC(=O)CCC(=O)NCC(=O)O)C(=O)OCc2c1cc1n(c2=O)Cc2cc3ccccc3nc2-1 [ST1452, 20-O-(glycyl)succinyl-camptothecin]",1600 nM
3,"CC[C@@]1(OC(=O)CCC(=O)NCC(=O)OC(C)(C)C)C(=O)OCc2c1cc1n(c2=O)Cc2c-1nc1ccccc1c2C=NOC(C)(C)C [ST1616, 7-ter-butoxyiminomethyl-20-O-(terbutylglycyl)succinyl-camptothecin]",4 nM
4,20-O-(benzylglycyl)succinyl-camptothecin [ST1451],150 nM
5,"CCC1(OC(=O)CCC[N+](C)(C)C)C(=O)OCc2c1cc1n(c2=O)Cc2c-1nc1ccccc1c2C=NOC(C)(C)C (stereo not shown) [ST2200, (E)-7-tert-butoxyiminomethyl-20-O-(4-trimethylammonium)-butanoyl-camptothecin bromide]",17 nM
6,(E)-7-tert-butoxyiminomethyl-20-O-(4-trimethyl-ammonium-3-hydroxy)butanoyl-camptothecin bromide [ST2204],41 nM
7,7-ter-butoxyiminomethyl-20-O-(2-methoxy-phenyl-glycyl)succinyl-camptothecin [ST1617],29 nM
8,20-O-(terbutylglycyl)succinyl-camptothecin bromide [ST1453],260 nM
9,20-O-(2-methoxyphenylglycyl)succinyl-camptothecin [ST1454],160 nM

# — patent US7498340B2, “Esters in position 20 of camptothecins” (priority 2002, dated 2009)
